The values below come from US11357774B2, “Use of a quinoline sulfonyl compound for treatment of inflammation, inflammatory disorders, autoimmune disorders and malaria” (priority 2019, dated 2022).

The target of series [1] is β2 subunit of the proteasome 20S catalytic unit (Homo sapiens, UniProt Q99436). The conditions noted are these: cited from earlier work.
Series [2] deals with myeloperoxidase (MPO) activity in right lung tissues. In words: Myeloperoxidase assay in lung tissues of mice with LPS-induced ALI. Format: in vivo, mouse. The conditions noted are these: LPS 0.4 mg/kg, 24 hours, VR23 30 mg/kg intraperitoneally. The procedure: Six to eight week old female BALB/c mice strain 028 (Charles River Laboratories, QC, Canada) were fed regularly with laboratory chow and water upon arrival at the Laurentian University Animal Care Facility (Sudbury, ON, Canada). To determine a useful dose of LPS, three mice per group were treated for 24 hours with the following three different conditions: (i) no LPS, (ii) 0.25 mg of LPS per kg of body weight, and (iii) 0.50 mg of LPS per kg of body weight. The different concentrations of LPS were administered intranasally to the three BALB/c mice per concentration. After the animals were sacrificed, the bronchoalveolar lavage fluid (BALF) of each mouse was collected and analyzed for LPS-induced inflammatory responses. […] Experimental design involving the use of VR23 was based on a previous acute lung injury (ALI) instillation by Wei and Huang^26. Briefly, mice were divided into 5 groups, with 3-5 mice per group: no lung injury (i.e., no treat), sham treated, LPS-only, LPS+DEX, and LPS+VR23. […] Bronchoalveolar lavage fluid was collected and the number of cells infiltrated into the bronchoalveolar fluid were counted (FIG. 2). […]
The accumulation of neutrophils in the lung tissues was analyzed with a colorimetric MPO assay kit (Sigma Aldrich), which measures the amount of myeloperoxidase activity^26. […] The MPO activity was then determined as per the protocol provided by the supplier. […]

The subject of series [3] is human fibroblast-like synoviocytes from rheumatoid arthritis patients (HFLS-RA). Put plainly: Viability test, HFLS-RA cells. The conditions noted are these: 6 hours, IL-1β 10 ng/mL, VR23 1.25-5.0 μM, HCQ 7.5-30 μM. Format: cell-based. The method, then: The values presented are the mean±SEM (n=3).
The CCK-8 assay was used to count viable cells under the various treatment conditions. Briefly, cells were cultured in 11 columns of a 96-well clustered plate, with 5,000 cells in 100 μL of culture medium per well, excluding one column for a media-only control. The plate was incubated overnight at 37° C. in the humidified conditions, followed by treatment with test compounds diluted in the culture medium (10 μL). Each column was treated with a different condition so that each treatment could have 8 repeats. […] The absorbance was measured using an automatic plate reader (Synergy H4 Hybrid Multi-Mode Microplate Reader, BioTek, Montreal, Canada) at 450 nm wavelength. The cell viability of each treatment sample was determined by using the following equation (%)=(Abstrtmt-Absmedia)/(AbsuT-Absmedia)*100, where Abstrtmt is the absorbance value of cells with the various treatment conditions; Absmedia is the absorbance of the well containing media only; AbsuT is the absorbance of the wells with untreated cells.
This finding was extended to human cells relevant to autoimmune diseases. […] Cytokine levels in cell culture supernatants were determined by a single-analyte ELISA. […] The cytokine secretion was measured in cell culture supernatants by a single-analyte ELISA.

Another series concerns mouse organs / tumor. The following applies: cited from earlier work.
The subject of series [4] is IL-6 secretion in HFLS-N cells. Put plainly: IL-6 secretion in stimulated HFLS-N cells (ELISA). Format: cell-based, human. The conditions noted are these: 6 hours. The method, then: The mean±SEM (n=3) values were determined by a Dunnett's test.
The values presented are the mean±SEM (n=2).
The enzyme-linked immunosorbent assay (ELISA) is a quantitative measurement based on sandwich-based enzyme linking, using a protein-specific capture antibody to determine the levels of single or multiple chemokines and cytokines.
This finding was extended to human cells relevant to autoimmune diseases. Human fibroblast-like synoviocytes (HFLS) are present in the synovial fluid of joint capsules and produce harmful molecules that contribute to joint destruction and the exacerbation of the disease in rheumatoid arthritis patients. […] The cells were then stimulated with IL-1β (FIG. 16) or LPS (FIG. 17), in the absence (control; IL-1β only) or presence of VR23 or HCQ. HCQ was included for comparison because it is often used to treat rheumatoid arthritis. […] For “VR23 only” samples, 5 μM VR23 was used. Fifty thousand HFLS cells per mL were used for the experiment. Cytokine levels in cell culture supernatants were determined by a single-analyte ELISA. […] Fifty thousand HFLS cells per mL were used for the experiment. The cytokine secretion was measured in cell culture supernatants by a single-analyte ELISA.

For `O=[N+]([O-])c1ccc(S(=O)(=O)N2CCN(c3ccnc4cc(Cl)ccc34)CC2)c([N+](=O)[O-])c1` [VR23, 7-chloro-4-(4-(2,4-dinitrophenylsulfonyl)piperazin-1-yl)quinoline], the proteasome inhibition entry in series [1] was “strong proteasome inhibitor”. In series [2], the “myeloperoxidase (MPO) in lung tissues” value is “strong inhibitor of MPO”. Besides, the cell viability result in series [3] is reported as “none of the conditions examined significantly affected the viability”. Moreover, in the series on mouse organs / tumor (animal-based studies), the anti-tumor activity result is on record as “strong anti-tumor activity” and the “toxicity to mouse organs” value is reported as “without any notable toxic side effects to mouse organs”. Also, the “toxic side effects of paclitaxel in combination” value in the series on mouse organs / tumor (used in combination with paclitaxel (Tax)) was “reduces toxic side effects caused by paclitaxel”. Also, the “IL-6 secretion, dose dependence” value in series [4] (IL-1β 10 ng/mL, VR23 2.5-10 μM, HCQ 15 or 30 μM) is on record as “decreases in a dose dependent manner”. Also, the “secretion of IL-6” value in series [4] (LPS 100 ng/mL) is reported as “rate of the decrease is much lower”.
